CC1CCN(C2CCN(S(=O)(=O)c3ccccc3)CC2)CC1 [compound 5, 4-methyl-1′-(phenylsulfonyl)-1,4′-bipiperidine]
melting point: 154 to 156 °C

CC1CCN(C2CCN(S(=O)(=O)c3ccc([N+](=O)[O-])cc3)CC2)CC1 [compound 7, 4-Methyl-1′-((4-nitrophenyl)sulfonyl)-1,4′-bipiperidine]
melting point: 165 to 168 °C

CC1CCN(C2CCN(S(=O)(=O)c3ccc(C#N)cc3)CC2)CC1 [compound 9, 4-((4-Methyl-[1,4′-bipiperidin]-1′-yl)sulfonyl)benzonitrile]
melting point: 184 to 186 °C

Cc1ccc(S(=O)(=O)N2CCC(N3CCC(C)CC3)CC2)cc1 [compound 11, 4-Methyl-1′-tosyl-1,4′-bipiperidine]
melting point: 139 to 142 °C

CCc1ccc(S(=O)(=O)N2CCC(N3CCC(C)CC3)CC2)cc1 [compound 12, 1′-((4-Ethylphenyl)sulfonyl)-4-methyl-1,4′-bipiperidine]
melting point: 108 to 110 °C

CC1CCN(C2CCN(S(=O)(=O)c3ccc(C(C)C)cc3)CC2)CC1 [compound 13, 1′-((4-Isopropylphenyl)sulfonyl)-4-methyl-1,4′-bipiperidine]
melting point: 144 to 147 °C

CC1CCN(C2CCN(S(=O)(=O)c3ccc(C(C)(C)C)cc3)CC2)CC1 [compound 14, 1′-((4-(Tert-butyl)phenyl)sulfonyl)-4-methyl-1,4′-bipiperidine]
melting point: 173 to 176 °C

CC1CCN(C2CCN(S(=O)(=O)c3ccc(C(F)(F)F)cc3)CC2)CC1 [compound 15, 4-Methyl-1′-((4-(trifluoromethyl)phenyl)sulfonyl)-1,4′-bipiperidine]
melting point: 175 to 178 °C

CC1CCN(C2CCN(S(=O)(=O)c3ccc(Br)cc3)CC2)CC1 [compound 17, 1′-((4-Bromophenyl)sulfonyl)-4-methyl-1,4′-bipiperidine]
melting point: 165 to 168 °C

CCCOc1ccc(S(=O)(=O)N2CCC(N3CCC(C)CC3)CC2)cc1 [compound 18, 4-Methyl-1′-((4-propoxyphenyl)sulfonyl)-1,4′-bipiperidine]
melting point: 118 to 121 °C

CCCCOc1ccc(S(=O)(=O)N2CCC(N3CCC(C)CC3)CC2)cc1 [compound 19, 1′-((4-Butoxyphenyl)sulfonyl)-4-methyl-1,4′-bipiperidine]
melting point: 137 to 139 °C

CC1CCN(C2CCN(S(=O)(=O)c3ccc(OCc4ccccc4)cc3)CC2)CC1 [compound 20, 1′-((4-(Benzyloxy)phenyl)sulfonyl)-4-methyl-1,4′-bipiperidine]
melting point: 157 to 159 °C

CC1CCN(C2CCN(S(=O)(=O)c3ccc(OC(F)(F)F)cc3)CC2)CC1 [compound 21, 4-Methyl-1′-((4-(trifluoromethoxy)phenyl)sulfonyl)-1,4′-bipiperidine]
melting point: 168 to 170 °C

COc1cccc(S(=O)(=O)N2CCC(N3CCC(C)CC3)CC2)c1 [compound 23, 1′-((3-Methoxyphenyl)sulfonyl)-4-methyl-1,4′-bipiperidine]
melting point: 81 to 83 °C

Cc1cccc(S(=O)(=O)N2CCC(N3CCC(C)CC3)CC2)c1 [compound 26, 4-Methyl-1′-(m-tolylsulfonyl)-1,4′-bipiperidine]
melting point: 90 to 93 °C

CC1CCN(C2CCN(S(=O)(=O)c3cccc(C(F)(F)F)c3)CC2)CC1 [compound 27, 4-Methyl-1′-((3-(trifluoromethyl)phenyl)sulfonyl)-1,4′-bipiperidine]
melting point: 123 to 125 °C

CC1CCN(C2CCN(S(=O)(=O)c3cccc(Cl)c3)CC2)CC1 [compound 28, 1′-((3-Chlorophenyl)sulfonyl)-4-methyl-1,4′-bipiperidine]
melting point: 122 to 124 °C

CC1CCN(C2CCN(S(=O)(=O)c3cccc(Br)c3)CC2)CC1 [compound 29, 1′-((3-Bromophenyl)sulfonyl)-4-methyl-1,4′-bipiperidine]
melting point: 125 to 126 °C

CC1CCN(C2CCN(S(=O)(=O)c3ccccc3Br)CC2)CC1 [compound 30, 1′-((2-Bromophenyl)sulfonyl)-4-methyl-1,4′-bipiperidine]
melting point: 82 to 84 °C

COc1ccc(S(=O)(=O)N2CCC(N3CCC(C)CC3)CC2)cc1OC [compound 31, 1′-((3,4-Dimethoxyphenyl)sulfonyl)-4-methyl-1,4′-bipiperidine]
melting point: 132 to 134 °C

COc1ccc(OC)c(S(=O)(=O)N2CCC(N3CCC(C)CC3)CC2)c1 [compound 32, 1′-((2,5-Dimethoxyphenyl)sulfonyl)-4-methyl-1,4′-bipiperidine]
melting point: 75 to 78 °C

COc1ccc(Br)cc1S(=O)(=O)N1CCC(N2CCC(C)CC2)CC1 [compound 33, 1′-((5-Bromo-2-methoxyphenyl)sulfonyl)-4-methyl-1,4′-bipiperidine]
melting point: 98 to 102 °C

COc1cc(C)ccc1S(=O)(=O)N1CCC(N2CCC(C)CC2)CC1 [compound 34, 1′-((2-Methoxy-4-methylphenyl)sulfonyl)-4-methyl-1,4′-bipiperidine]
melting point: 95 to 98 °C

CC1CCN(C2CCN(S(=O)(=O)c3ccc([N+](=O)[O-])c(C(F)(F)F)c3)CC2)CC1 [compound 35, 4-Methyl-1′-((4-nitro-3-(trifluoromethyl)phenyl)sulfonyl)-1,4′-bipiperidine]
melting point: 175 to 178 °C

Cc1ccc(C#N)c(S(=O)(=O)N2CCC(N3CCC(C)CC3)CC2)c1 [compound 36, 4-Methyl-2-((4-methyl-[1,4′-bipiperidin]-1′-yl)sulfonyl)benzonitrile]
melting point: 118 to 121 °C

Cc1ccc(S(=O)(=O)N2CCC(N3CCC(C)CC3)CC2)cc1C [compound 37, 1′-((3,4-Dimethylphenyl)sulfonyl)-4-methyl-1,4′-bipiperidine]
melting point: 87 to 89 °C

CCc1cc(Br)ccc1S(=O)(=O)N1CCC(N2CCC(C)CC2)CC1 [compound 38, 1′-((4-Bromo-2-ethylphenyl)sulfonyl)-4-methyl-1,4′-bipiperidine]
melting point: 87 to 91 °C

CC1CCN(C2CCN(S(=O)(=O)c3ccc(Cl)c(C(F)(F)F)c3)CC2)CC1 [compound 39, 1′-((4-Chloro-3-(trifluoromethyl)phenyl)sulfonyl)-4-methyl-1,4′-bipiperidine]
melting point: 118 to 120 °C

CC1CCN(C2CCN(S(=O)(=O)c3ccc(Cl)c(Cl)c3)CC2)CC1 [compound 40, 1′-((3,4-Dichlorophenyl)sulfonyl)-4-methyl-1,4′-bipiperidine]
melting point: 160 to 162 °C

CC1CCN(C2CCN(S(=O)(=O)c3ccc(Cl)cc3Cl)CC2)CC1 [compound 41, 1′-((2,4-Dichlorophenyl)sulfonyl)-4-methyl-1,4′-bipiperidine]
melting point: 75 to 78 °C

CC1CCN(C2CCN(S(=O)(=O)c3cc(Cl)cc(Cl)c3)CC2)CC1 [compound 42, 1′-((3,5-Dichlorophenyl)sulfonyl)-4-methyl-1,4′-bipiperidine]
melting point: 128 to 131 °C

CC1CCN(C2CCN(S(=O)(=O)c3ccc(F)cc3F)CC2)CC1 [compound 44, 1′-((2,4-Difluorophenyl)sulfonyl)-4-methyl-1,4′-bipiperidine]
melting point: 165 to 168 °C

CC1CCN(C2CCN(S(=O)(=O)c3ccc(Br)cc3OC(F)(F)F)CC2)CC1 [compound 45, 1′-((4-Bromo-2-(trifluoromethoxy)phenyl)sulfonyl)-4-methyl-1,4′-bipiperidine]
melting point: 108 to 110 °C

Cc1cc(C)c(S(=O)(=O)N2CCC(N3CCC(C)CC3)CC2)c(C)c1 [compound 47, 1′-(Mesitylsulfonyl)-4-methyl-1,4′-bipiperidine]
melting point: 62 to 65 °C

Cc1cc(Cl)cc(Cl)c1S(=O)(=O)N1CCC(N2CCC(C)CC2)CC1 [compound 49, 1′-((2,4-Dichloro-6-methylphenyl)sulfonyl)-4-methyl-1,4′-bipiperidine]
melting point: 89 to 91 °C

CC1CCN(C2CCN(S(=O)(=O)c3cc(F)c(Br)c(F)c3)CC2)CC1 [compound 50, 1′-((4-Bromo-3,5-difluorophenyl)sulfonyl)-4-methyl-1,4′-bipiperidine]
melting point: 161 to 163 °C

CC1CCN(C2CCN(S(=O)(=O)c3ccccc3-c3ccccc3)CC2)CC1 [compound 51, 1′-([1,1′-Biphenyl]-2-ylsulfonyl)-4-methyl-1,4′-bipiperidine]
melting point: 106 to 109 °C

CC1CCN(C2CCN(S(=O)(=O)c3ccc(-c4ccccc4)cc3)CC2)CC1 [compound 56, 1′-([1,1′-Biphenyl]-4-ylsulfonyl)-4-methyl-1,4′-bipiperidine]
melting point: 178 to 181 °C

CC1CCN(C2CCN(S(=O)(=O)c3ccc(-c4ccc(Cl)cc4)cc3)CC2)CC1 [compound 57, 1′-((4′-Cloro-[1,1′-biphenyl]-4-yl)sulfonyl)-4-methyl-1,4′-bipiperidine]
melting point: 205 to 207 °C

COc1ccc(-c2ccc(S(=O)(=O)N3CCC(N4CCC(C)CC4)CC3)cc2)cc1 [compound 58, 1′-((4′-Methoxy-[1,1′-biphenyl]-4-yl)sulfonyl)-4-methyl-1,4′-bipiperidine]
melting point: 195 to 198 °C

CC1CCN(C2CCN(S(=O)(=O)c3cccc(-c4ccc(Cl)cc4)c3)CC2)CC1 [compound 62, 1′-((4′-Chloro-[1,1′-biphenyl]-3-yl)sulfonyl)-4-methyl-1,4′-bipiperidine]
melting point: 124 to 126 °C

COc1ccc(-c2cccc(S(=O)(=O)N3CCC(N4CCC(C)CC4)CC3)c2)cc1 [compound 63, 1′-((4′-Methoxy-[1,1′-biphenyl]-3-yl)sulfonyl)-4-methyl-1,4′-bipiperidine]
melting point: 107 to 109 °C

Cc1ccc(-c2cccc(S(=O)(=O)N3CCC(N4CCC(C)CC4)CC3)c2)cc1 [compound 64, 4-Methyl-1′-((4′-methyl-[1,1′-biphenyl]-3-yl)sulfonyl)-1,4′-bipiperidine]
melting point: 103 to 105 °C

CC1CCN(C2CCN(S(=O)(=O)c3cccc(-c4ccccc4C(F)(F)F)c3)CC2)CC1 [compound 68, 4-Methyl-1′-((2′-(trifluoromethyl)-[1,1′-biphenyl]-3-yl)sulfonyl)-1,4′-bipiperidine]
melting point: 110 to 112 °C

Cc1cc(C)cc(-c2cccc(S(=O)(=O)N3CCC(N4CCC(C)CC4)CC3)c2)c1 [compound 69, 1′-((3′,5′-Dimethyl-[1,1′-biphenyl]-3-yl)sulfonyl)-4-methyl-1,4′-bipiperidine]
melting point: 120 to 123 °C

— US20220024891A1 (The Board of Regents of the University of Texas System, priority 2018, published 2022)
